Key:
[1] = molecular target: HDAC2 (Homo sapiens, UniProt Q92769); assay: Deacetylase enzyme assay (fluorescence release): HDAC2; type: biochemical; conditions: 24-hour study
Excerpt: (§1) Proteins from cells were extracted and subjected to the western blotting analysis. β-Actin was used as an internal control. The deacetylase enzyme assay was based on a homogeneous fluorescence release assay. […] After fluorophore from the deacetylated substrates, fluorescent signal was detected.

[2] = molecular target: HDAC6 (Homo sapiens, UniProt Q9UBN7); assay: Deacetylase enzyme assay (fluorescence release): HDAC6; type: biochemical; conditions: 24-hour study
Excerpt: as §1

[3] = system: K6 (normal: keratinocyte); assay: IC50 against cell lines: K6; conditions: Homo sapiens, read-out: IC50 ± SD against human cancer cell lines
[4] = system: KB-7D (KB resistant); assay: IC50 against human cancer cell lines: KB-7D; conditions: KB7D, read-out: IC50 ± SD against human cancer cell lines
Method: (§2) More specifically, the IC50 values of test compounds were determined by carrying out a fluorimetric histone deacetylase assay following the manufacturer's instructions. For a pan-HDAC assay, HeLa nuclear extracts were used as a source of histone deacetylase (BioVision Inc.). Histone deacetylase isomer inhibition assays were conducted using purified recombinant histone deacetylase proteins of the various isomers (BPS Bioscience Inc.). Reactions were performed in 0.1 mol/L KCl, 20 mmol/L HEPES/NaOH at pH 7.9, 20% glycerol, 0.2 mmol/L DTA, 0.5 mmol/L DTT, and 0.5 mmol/L phenylmethylsulfonylfluoride. […] Reactions were carried out in triplicate for each test compound. Each point represented the mean±SD of replicates.

[5] = system: OECM-1 (oral carcinoma); assay: IC50 against human cancer cell lines: OECM-1; conditions: OECM1, read-out: IC50 ± SD against human cancer cell lines
[6] = system: DU-145 (prostate carcinoma); assay: IC50 against human cancer cell lines: DU-145; conditions: DU-145, read-out: IC50 ± SD against human cancer cell lines
Method: as §2

[7] = system: LNCaP-R1 (prostate carcinoma); assay: IC50 against human cancer cell lines: LNCaP-R1; conditions: read-out: IC50 ± SD against human cancer cell lines
Method: as §2

[8] = system: LNCaP-R2 (prostate carcinoma); assay: IC50 against human cancer cell lines: LNCaP-R2; conditions: read-out: IC50 ± SD against human cancer cell lines
[9] = system: LNCaP-104 (prostate carcinoma); assay: IC50 against human cancer cell lines: LNCaP-104; conditions: read-out: IC50 ± SD against human cancer cell lines
[10] = system: HDAC1-10; assay: SDS-PAGE and western blot analysis: HDAC1-10 in PC3 cells; type: cell-based, human; conditions: 48 hours
Method: More specifically, cells in the logarithmic phase were initially seeded at a density of 1×10^6 in 100 mm^2 dishes. […] IC50 indicia of compound in vitro potency) for the indicated times (i.e., 24 and 48 hours), adherent cells were collected for protein extract preparation. Briefly, cells were lysed with the cell lysis reagent CelLytic™ M (Sigma-Aldrich) containing 1 mM DTT, 1 mM PMSF and protease inhibitors for whole-cell lysate preparation. Equal amounts of lysate (on a protein basis) were then differentiated using the SDS-PAGE, blotted on PVDF membranes, conjugated with various specific primary antibodies, and then probed with appropriate secondary antibodies. The immunoreactive bands were detected using the ECL method and visualized on Kodak Bio-MAX MR film. Proteins from cells were extracted and subjected to the western blotting analysis. β-Actin was used as an internal control. The deacetylase enzyme assay was based on a homogeneous fluorescence release assay. […] After fluorophore from the deacetylated substrates, fluorescent signal was detected.

[11] = system: C6 glioma cell line; assay: Cell proliferation in C6 glioma in vitro (MTT); type: cell-based; conditions: rat C6 glioma
Excerpt: C6 glioma cell line was obtained from American Type Culture Collection.

[12] = system: C6 glioma cell line; assay: Cell death in C6 glioma in vitro (LDH assay); type: cell-based; conditions: rat C6 glioma, 30 uM, after 3 days
Method: Cell death was analyzed by a lactate dehydrogenase (LDH) assay. The culture medium was centrifuged after the experiment and the activity of LDH released into culture media was detected with a LDH cytotoxicity detection kit (Roche). The percentage of cytotoxicity was determined by the equation: [(Experimental group−Control group)/(Triton-100-treated group (100% maximal death)−Control group)]×100%.

[13] = system: HDACs (p21, p27, histone, and α-tubulin acetylation) in the PC3 xenograft model; assay: In vivo HDAC inhibitory assay, PC3 xenograft; conditions: 25 mg/kg, oral, PC3 xenograft mice
Method: Subcutaneous inoculation of 5×10^6 PC3 cells in specific pathogen-free male athymic mice (strain BALB/cAnN.Cg-Foxn1nu/CrlNarl) from the National Laboratory Animal Center, Taiwan, was applied. The mice were subsequently fed under specific pathogen-free conditions and provided with sterile water and food. […] Tumor samples were obtained and frozen in liquid nitrogen before storage in −80° C. Tumor proteins were extracted and subjected to the Western blotting analysis. β-Actin was used as an internal control.

[14] = system: MCF-7 (breast carcinoma); assay: IC50 in human cancer cell lines (inhibiting HDAC): MCF-7; conditions: MCF7, read-out: IC50, inhibiting HDAC in human cancer cell lines
[15] = system: human glioblastoma (U87-MG-LucNeo cells) xenograft; assay: In vivo antitumor activity against human glioblastoma xenograft tumor: survival; conditions: intracranial U87 xenograft, Compound 7 50-100 mg/kg p.o.; TMZ 50 mg/kg p.o.
Excerpt: Male athymic nude mice at 5-6 weeks old were obtained from BioLasco (Taiwan) and maintained in a specific-pathogen-free facility. All experimental procedures were approved by the Institute of Animal Care and Use Committee of Taipei Medical University. Each nude mouse was anesthetized with an i.p. injection of xylazine (Sigma) and zolazepam (Zoletil 50, Virbac), and then secured in a stereotaxic frame.

Sequence of HDAC2 (Q92769 whole entry, species assumed): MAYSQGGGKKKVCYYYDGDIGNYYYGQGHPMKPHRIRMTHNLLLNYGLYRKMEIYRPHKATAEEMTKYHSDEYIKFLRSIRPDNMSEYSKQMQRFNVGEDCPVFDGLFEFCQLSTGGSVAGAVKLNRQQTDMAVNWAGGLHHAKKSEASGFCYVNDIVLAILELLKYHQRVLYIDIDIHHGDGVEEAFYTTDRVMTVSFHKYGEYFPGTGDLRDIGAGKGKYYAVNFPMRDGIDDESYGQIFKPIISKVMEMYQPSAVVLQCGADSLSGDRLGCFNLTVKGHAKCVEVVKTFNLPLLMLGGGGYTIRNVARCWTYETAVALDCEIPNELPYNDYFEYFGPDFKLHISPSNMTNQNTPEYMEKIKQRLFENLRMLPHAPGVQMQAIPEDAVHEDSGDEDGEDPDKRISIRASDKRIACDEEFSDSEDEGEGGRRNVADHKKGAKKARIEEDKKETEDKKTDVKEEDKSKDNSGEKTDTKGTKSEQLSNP
Sequence of HDAC6 (Q9UBN7 whole entry, species assumed): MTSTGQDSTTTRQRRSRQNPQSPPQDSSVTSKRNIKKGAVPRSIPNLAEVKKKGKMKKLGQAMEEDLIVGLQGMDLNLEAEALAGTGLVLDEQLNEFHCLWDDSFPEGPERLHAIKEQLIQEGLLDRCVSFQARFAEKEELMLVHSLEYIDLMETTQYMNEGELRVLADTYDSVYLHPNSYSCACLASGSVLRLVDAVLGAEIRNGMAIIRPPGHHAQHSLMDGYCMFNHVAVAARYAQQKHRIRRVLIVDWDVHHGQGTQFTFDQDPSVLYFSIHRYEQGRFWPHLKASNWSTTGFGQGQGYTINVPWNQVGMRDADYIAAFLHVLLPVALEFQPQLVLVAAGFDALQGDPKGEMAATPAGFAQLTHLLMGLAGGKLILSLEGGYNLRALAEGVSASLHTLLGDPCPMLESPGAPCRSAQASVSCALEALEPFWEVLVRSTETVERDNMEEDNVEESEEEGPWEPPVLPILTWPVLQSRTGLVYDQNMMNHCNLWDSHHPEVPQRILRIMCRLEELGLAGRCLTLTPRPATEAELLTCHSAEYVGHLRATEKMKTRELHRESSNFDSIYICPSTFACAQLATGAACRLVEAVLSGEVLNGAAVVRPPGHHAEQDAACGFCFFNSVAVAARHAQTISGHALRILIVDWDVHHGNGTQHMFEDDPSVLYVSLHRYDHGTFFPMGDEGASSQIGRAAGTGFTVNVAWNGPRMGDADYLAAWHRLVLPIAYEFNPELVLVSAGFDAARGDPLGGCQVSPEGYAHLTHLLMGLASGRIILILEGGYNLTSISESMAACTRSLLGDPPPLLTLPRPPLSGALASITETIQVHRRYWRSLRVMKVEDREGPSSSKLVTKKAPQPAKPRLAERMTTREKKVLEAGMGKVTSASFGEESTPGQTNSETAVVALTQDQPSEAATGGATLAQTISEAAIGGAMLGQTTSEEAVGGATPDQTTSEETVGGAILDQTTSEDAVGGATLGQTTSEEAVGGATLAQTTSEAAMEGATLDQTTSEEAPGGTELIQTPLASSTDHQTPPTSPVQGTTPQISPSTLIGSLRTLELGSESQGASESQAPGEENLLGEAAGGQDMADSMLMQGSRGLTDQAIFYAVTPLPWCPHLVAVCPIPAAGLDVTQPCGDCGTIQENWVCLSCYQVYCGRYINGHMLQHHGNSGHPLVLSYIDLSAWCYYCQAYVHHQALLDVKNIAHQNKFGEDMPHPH

| Compound | concentration inducing inhibition of HDAC2 [1] [nM] | concentration inducing inhibition of HDAC6 [2] | IC50 [3] [nM] | IC50 [4] [nM] | IC50 [5] [nM] | IC50 [6] [nM] | IC50 [7] [nM] | IC50 [8] [nM] | IC50 [9] [nM] | inhibition of HDAC1-10 activities in PC3 cells [10] | inhibition at 30 µM [11] [%] | induction of cell death (LDH) [12] | inhibiting HDACs in vivo (p21, p27, histone, and α-tubulin acetylation) [13] | IC50 [14] [nM] | survival [15] |
| --- | --- | --- | --- | --- | --- | --- | --- | --- | --- | --- | --- | --- | --- | --- | --- |
| COc1ccc(S(=O)(=O)N2CCc3cc(/C=C/C(=O)NO)cnc32)cc1 [Compound 5b, (E)-N-hydroxy-3-(1-(4-methoxyphenylsulfonyl)-2,3-dihydro-1H-pyrrolo[2,3-b]pyridin-5-yl)acrylamide] | ≤ 50 | about 100 nM | 545 ± 39 | 139 ± 26.8 | 384 ± 72.1 | 90 ± 30 | 150 ± 30 | 100 ± 40 | 180 ± 70 |  |  |  |  |  |  |
| O=C(/C=C/c1cccc(S(=O)(=O)n2ccc3cccnc32)c1)NO [Compound 7, (E)-3-(3-(1H-Pyrrolo[2,3-b]pyridin-1-ylsulfonyl)phenyl)-N-hydroxyacrylamide] |  |  |  |  |  |  |  |  |  | inhibited HDAC1-10 activities in PC3 cells in a concentration-dependent manner | ~50 | about 100% | effective | 1330 ± 360 | extended survival longer than TMZ |
